Experimental findings from paper PMC12091848, “Structural Insights Into Galectin‐3 Recognition of a Selenoglycomimetic” (Chemmedchem, 2025) are described below.

For this assay, the target named is T1, Galectin-3 (Gal-3) (Homo sapiens, UniProt P17931).
T1 construct: gene LGALS3
As to the kind of experiment: biochemical.

Molecules are shown by their SMILES.

T1 sequence (P17931 114-250 limits assumed): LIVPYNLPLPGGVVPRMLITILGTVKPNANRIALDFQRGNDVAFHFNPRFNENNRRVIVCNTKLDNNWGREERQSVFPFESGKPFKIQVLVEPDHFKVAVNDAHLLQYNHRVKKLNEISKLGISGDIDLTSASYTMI

With `OC[C@H]1O[C@@H]([Se][C@@H]2O[C@H](CO)[C@H](O)[C@H](O)[C@H]2O)[C@H](O)[C@@H](O)[C@H]1O` [SeDG, di(β‐D‐galactopyranosyl)selenide], binding was put at a Kd of 149 ± 30 µM.
